# Experimental data: patent publication US4760136A, “Chartreusin derivatives and salts thereof” (Ishihara Sangyo Kaisha, Ltd., priority 1984, dated 1988)
# How the values were obtained:
# P-388 leukemia cells = experiment: Antitumor activity: P-388 leukemia cells inoculated intraperitoneally, drug administered intravenously, BDF1 mice; assay type: in vivo; details: BDF1 mice, P-388 i.p.; for response vs control in vivo at 80 mg/kg: dose f: 80 mg/kg × 3, i.v. on days 1, 5 and 9
# Method: Into BDF1 mice were inoculated intraperitoneally P-388 leukemia cells at a rate of 1×10^6 cells/mouse, and each drug to be tested was administered intravenously on the first, fifth and ninth days after the inoculation. […] The drugs were as follows solutions prepared by adding physiological saline to each of compound Nos. 8, 9, 10, 11, 17, 34, 42, 59, 80 and 134; suspensions prepared by dispersing each of compound Nos. 41, 78, 98, 100, 130, 191, 212, 213, 215, 227 and 230 to 232 and a small amount of sodium carboxymethyl cellulose (Na.CMC) in physiological saline, […]
# [1] = Acute toxicity, intravenous (once), ddY mice; assay type: in vivo; details: mouse, in vivo, iv, formulated per Preparation Example
# Text: In Table 7 are shown acute toxicity values (LD50, mg/kg) in ddY mice in the case of intravenously administering (once) each of the compounds of this invention in the form of preparations shown in the Preparation Examples shown in Table 7.
# [2] = Mus musculus, P388, iv, dose c: 40 mg/kg × 3, i.v. on days 1, 5 and 9, read-out: T/C (%) of MST
# [3] = Mus musculus, P388, iv, read-out: T/C (%) of MST
# [4] = Mus musculus, P388, iv, dose b: 20 mg/kg × 3, i.v. on days 1, 5 and 9, read-out: T/C (%) of MST
# [5] = dose c: 40 mg/kg × 3, i.v. on days 1, 5 and 9
# [6] = dose b: 20 mg/kg × 3, i.v. on days 1, 5 and 9
Structure (SMILES),response vs control in vivo at 40 mg/kg (P-388 leukemia cells; [2]),response vs control in vivo at 80 mg/kg (P-388 leukemia cells; [3]),LD50 [1],response vs control in vivo at 20 mg/kg (P-388 leukemia cells; [4]),other results
COC1C(O)C(C)OC(OC2C(Oc3cccc4c(OC(=O)C(Cc5c[nH]c6ccccc56)NC(=O)OCc5ccccc5)c5c(=O)oc6ccc(C)c7c(=O)oc(c34)c5c67)OC(C)C3OC(c4cccc(C(F)(F)F)c4)OC32)C1O (stereo not drawn) [compound 101],171%,225%,≥ 80 mg/kg,,
COc1ccc(C2OC3C(C)OC(Oc4cccc5c(OC(=O)CCNC(=O)c6ccccc6)c6c(=O)oc7ccc(C)c8c(=O)oc(c45)c6c78)C(OC4OC(C)C(O)C(OC)C4O)C3O2)cc1 (stereo not drawn) [compound 96],162%,,≥ 40 mg/kg,,
COC1C(O)C(C)OC(OC2C(Oc3cccc4c(OC(=O)C(C)CN)c5c(=O)oc6ccc(C)c7c(=O)oc(c34)c5c67)OC(C)C3OC(c4cccc(F)c4)OC32)C1O (stereo not drawn) [Compound No. 14],,,≥ 30 mg/kg,195%,
COC1C(O)C(C)OC(OC2C(Oc3cccc4c(OC(=O)CCNC=O)c5c(=O)oc6ccc(C)c7c(=O)oc(c34)c5c67)OC(C)C3OC(c4ccsc4)OC32)C1O (stereo not drawn) [compound 81],173%,,≥ 40 mg/kg,139%,
COC1C(O)C(C)OC(OC2C(Oc3cccc4c(OC(=O)CNC(=O)OCc5ccccc5)c5c(=O)oc6ccc(C)c7c(=O)oc(c34)c5c67)OC(C)C3OC(c4ccccc4)OC32)C1O (stereo not drawn) [compound 71],,,≥ 40 mg/kg,157%,
COC1C(O)C(C)OC(OC2C(Oc3cccc4c(OC(=O)CCNC(=O)OCc5ccccc5)c5c(=O)oc6ccc(C)c7c(=O)oc(c34)c5c67)OC(C)C3OC(c4ccccc4)OC32)C1O (stereo not drawn) [compound 103],146%,203%,,,
COC1C(O)C(C)OC(OC2C(Oc3cccc4c(OC(=O)CCNC(C)=O)c5c(=O)oc6ccc(C)c7c(=O)oc(c34)c5c67)OC(C)C3OC(c4cccc(C(F)(F)F)c4)OC32)C1O (stereo not drawn) [Compound No. 53],165%,239%,≥ 80 mg/kg,,
COC1C(O)C(C)OC(OC2C(Oc3cccc4c(OC(=O)CCCCCN)c5c(=O)oc6ccc(C)c7c(=O)oc(c34)c5c67)OC(C)C3OC(C)(C)OC32)C1O (stereo not drawn) [compound 59],146%,218%,≥ 100 mg/kg,,
COC1C(O)C(C)OC(OC2C(Oc3cccc4c(OC(=O)CCSC)c5c(=O)oc6ccc(C)c7c(=O)oc(c34)c5c67)OC(C)C3OC(c4ccccc4)OC32)C1O (stereo not drawn) [Compound No. 152],210%,,≥ 40 mg/kg,157%,
COC1C(O)C(C)OC(OC2C(Oc3cccc4c(OC(=O)CCNC(=O)C(F)(F)F)c5c(=O)oc6ccc(C)c7c(=O)oc(c34)c5c67)OC(C)C3OC(c4cccc(Br)c4)OC32)C1O (stereo not drawn) [Compound No. 31],171%,238%,≥ 80 mg/kg,,
COC1C(O)C(C)OC(OC2C(Oc3cccc4c(OC(=O)CNC(=O)CNC(=O)CNC(=O)OCc5ccccc5)c5c(=O)oc6ccc(C)c7c(=O)oc(c34)c5c67)OC(C)C3OC(c4cccc(F)c4)OC32)C1O (stereo not drawn) [compound 116],130%,,≥ 30 mg/kg,,
COC1C(O)C(C)OC(OC2C(Oc3cccc4c(OC(=O)CCCl)c5c(=O)oc6ccc(C)c7c(=O)oc(c34)c5c67)OC(C)C3OC(C)(C)OC32)C1O (stereo not drawn) [Compound No. 157],153%,201%,≥ 80 mg/kg,,
COC1C(O)C(C)OC(OC2C(Oc3cccc4c(OC(=O)CCCCCNC(=O)OCc5ccccc5)c5c(=O)oc6ccc(C)c7c(=O)oc(c34)c5c67)OC(C)C3OC(c4ccccc4)OC32)C1O (stereo not drawn) [compound 119],,,≥ 40 mg/kg,,T/C (%) of MST (P-388 leukemia cells; [5]): 153%
COC(=O)c1ccc(C(=O)Oc2c3cccc(O[C@@H]4O[C@H](C)[C@@H]5OC(c6ccco6)O[C@@H]5[C@H]4O[C@H]4O[C@H](C)[C@H](O)[C@H](OC)[C@H]4O)c3c3oc(=O)c4c(C)ccc5oc(=O)c2c3c54)cc1 (stereo partly drawn) [compound 211],,176%,≥ 80 mg/kg,,
"COC1C(O)C(C)OC(OC2C(Oc3cccc4c(OC(=O)CCNC(=O)CN)c5c(=O)oc6ccc(C)c7c(=O)oc(c34)c5c67)OC(C)C3OC(c4cccc(F)c4)OC32)C1O (stereo not drawn) [compound 33, 6-O-(glycyl-β-alanyl)-3',4'-O-(m-fluorobenzylidene)-chartreusin phosphate]",,,≥ 40 mg/kg,186%,"response vs control in vivo at 10 mg/kg (P-388 leukemia cells; Mus musculus, P388, iv, dose a: 10 mg/kg × 3, i.v. on days 1, 5 and 9, read-out: T/C (%) of MST): 157%"
COC1C(O)C(C)OC(OC2C(Oc3cccc4c(OC(=O)CCNC(=O)OCc5ccccc5)c5c(=O)oc6ccc(C)c7c(=O)oc(c34)c5c67)OC(C)C3OC(c4ccccc4)OC32)C1O (stereo not drawn) [compound 72],,,≥ 40 mg/kg,167%,
"COC1C(O)C(C)OC(OC2C(Oc3cccc4c(OC(=O)CCCO)c5c(=O)oc6ccc(C)c7c(=O)oc(c34)c5c67)OC(C)C3OC(c4ccccc4)OC32)C1O (stereo not drawn) [Compound No. 147, 6-O-(4-Hydroxy-n-Butyryl)-3',4'-O-Benzylidene-Chartreusin]",,,≥ 40 mg/kg,214%,
COC1C(O)C(C)OC(OC2C(Oc3cccc4c(OC(=O)C(Br)C(C)C)c5c(=O)oc6ccc(C)c7c(=O)oc(c34)c5c67)OC(C)C3OC(C)(C)OC32)C1O (stereo not drawn) [Compound No. 172],148%,195%,≥ 80 mg/kg,,
COC1C(O)C(C)OC(OC2C(Oc3cccc4c(OC(=O)C(NC(=O)OCc5ccccc5)C(C)C)c5c(=O)oc6ccc(C)c7c(=O)oc(c34)c5c67)OC(C)C3OC(c4ccccc4)OC32)C1O (stereo not drawn) [compound 106],,,≥ 40 mg/kg,173%,
COC1C(O)C(C)OC(OC2C(Oc3cccc4c(OC(=O)CC[S+](C)[O-])c5c(=O)oc6ccc(C)c7c(=O)oc(c34)c5c67)OC(C)C3OC(c4ccccc4)OC32)C1O (stereo not drawn) [Compound No. 150],205%,,≥ 40 mg/kg,200%,
CO[C@H]1[C@@H](O)[C@@H](C)O[C@H](O[C@H]2[C@H](Oc3cccc4c(OC(=O)c5ccc(C#N)cc5)c5c(=O)oc6ccc(C)c7c(=O)oc(c34)c5c67)O[C@H](C)[C@@H]3OC(C)(C)O[C@@H]32)[C@@H]1O [Compound No. 183],153%,192%,≥ 80 mg/kg,,
"COC1C(O)C(C)OC(OC2C(Oc3cccc4c(OC(=O)CCCCCNC(=O)C(F)(F)F)c5c(=O)oc6ccc(C)c7c(=O)oc(c34)c5c67)OC(C)C3OC(c4ccccc4)OC32)C1O (stereo not drawn) [compound 78, 6-O-(N-trifluoroacetyl-6-amino-n-hexanoyl)-3',4'-O-benzylidene-chartreusin]",146%,176%,≥ 100 mg/kg,,
CCCCC(CC)C(=O)Oc1c2cccc(OC3OC(C)C4OC(C)(C)OC4C3OC3OC(C)C(O)C(OC)C3O)c2c2oc(=O)c3c(C)ccc4oc(=O)c1c2c43 (stereo not drawn) [compound 239],,,≥ 60 mg/kg,,"response vs control in vivo at 60 mg/kg (P-388 leukemia cells; Mus musculus, P388, iv, dose e: 60 mg/kg × 3, i.v. on days 1, 5 and 9, read-out: T/C (%) of MST): 153%"
COC1C(O)C(C)OC(OC2C(Oc3cccc4c(OC(=O)c5cccc(Cl)c5)c5c(=O)oc6ccc(C)c7c(=O)oc(c34)c5c67)OC(C)C3OC(C)(C)OC32)C1O (stereo not drawn) [compound 226],145%,,,,
COC1C(O)C(C)OC(OC2C(Oc3cccc4c(OC(=O)C(C)CNC(=O)C(F)(F)F)c5c(=O)oc6ccc(C)c7c(=O)oc(c34)c5c67)OC(C)C3OC(c4ccccc4)OC32)C1O (stereo not drawn) [Compound No. 44],,217%,,,T/C (%) of MST (P-388 leukemia cells; [5]): 164%
COC1C(O)C(C)OC(OC2C(Oc3cccc4c(OC(=O)CNC(=O)OCc5ccccc5)c5c(=O)oc6ccc(C)c7c(=O)oc(c34)c5c67)OC(C)C3OC(c4ccccc4)OC32)C1O (stereo not drawn) [compound 104],137%,,,,
"COC1C(O)C(C)OC(OC2C(Oc3cccc4c(OC(=O)CCCOCc5ccccc5)c5c(=O)oc6ccc(C)c7c(=O)oc(c34)c5c67)OC(C)C3OC(c4ccccc4)OC32)C1O (stereo not drawn) [Compound No. 165, 6-O-(4-benzyloxy-n-butyryl)-3',4'-O-Benzylidene-Chartreusin]",,,,189%,
COC1C(O)C(C)OC(OC2C(Oc3cccc4c(OC(=O)CCNC=O)c5c(=O)oc6ccc(C)c7c(=O)oc(c34)c5c67)OC(C)C3OC(c4ccccc4)OC32)C1O (stereo not drawn) [Compound No. 45],220%,,,,T/C (%) of MST (P-388 leukemia cells; [6]): 164%
COC1C(O)C(C)OC(OC2C(Oc3cccc4c(OC(=O)CCNC=O)c5c(=O)oc6ccc(C)c7c(=O)oc(c34)c5c67)OC(C)C3OC(c4ccccc4)OC32)C1O (stereo not drawn) [Compound No. 20],248%,,,,T/C (%) of MST (P-388 leukemia cells; [6]): 203%
COC1C(O)C(C)OC(OC2C(Oc3cccc4c(OC(=O)CCNC(=O)C(F)(F)F)c5c(=O)oc6ccc(C)c7c(=O)oc(c34)c5c67)OC(C)C3OC(c4ccccc4)OC32)C1O (stereo not drawn) [Compound No. 21],,,,210%,T/C (%) of MST (P-388 leukemia cells; [5]): 229%
